From ChEMBL document CHEMBL1201862, “PubChem BioAssay data set” (2004)
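Dose response: 5 concentrations. Exposure: 48 h. Format: 96-well plates. Endpoint: linear interpolation; highest concentration if not reached. GI50 marks 50% less growth.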 Activity calls are given as the source filed them. Cut-off read from the data, not from the text of the source: active = GI50 up to about 1.1 µM and inactive = higher.

Key:
Assay in all cases: inhibition of tumour cell growth, NCI panel, 48 h
HT-29 = system: HT-29
NCI-H226 = system: NCI-H226
A498 = system: A498
SK-MEL-28 = system: SK-MEL-28
IGROV-1 = system: IGROV-1
NCI-H460 = system: NCI-H460
MCF7 = system: MCF7
NCI-H23 = system: NCI-H23
KM-20L2 = system: KM-20L2
SN12C = system: SN12C
SK-MEL-5 = system: SK-MEL-5
A549 = system: A549
TK-10 = system: TK-10
NCI-H522 = system: NCI-H522
OVCAR-3 = system: OVCAR-3
UACC-257 = system: UACC-257
786-0 = system: 786-0
PC-3 = system: PC-3
SNB-75 = system: SNB-75
MOLT-4 = system: MOLT-4

Measured: GI50

CO[C@@]12[C@H](COC(N)=O)C3=C(C(=O)C(C)=C(N)C3=O)N1C[C@H]1[C@@H]2N1C (some centres undefined) [PORFIROMYCIN]
inactive: HT-29 1.42 µM | NCI-H226 8.69 µM | A498 6.31 µM | SK-MEL-28 12.3 µM | IGROV-1 5.62 µM | KM-20L2 7.98 µM | SK-MEL-5 1.8 µM | TK-10 16.3 µM | NCI-H522 4.59 µM | OVCAR-3 6.76 µM | UACC-257 8.28 µM | 786-0 8.57 µM | PC-3 12.6 µM
active: NCI-H460 0.128 µM | MCF7 0.714 µM | NCI-H23 0.506 µM | SN12C 0.782 µM | A549 0.489 µM | SNB-75 1.1 µM | MOLT-4 0.543 µM

COc1cc2c(c(OC)c1OC)-c1ccc(SC)c(=O)cc1C(NC=O)CC2 (centres undefined)
inactive: TK-10 2.02 µM
active: HT-29 < 0.01 µM | NCI-H226 0.0465 µM | A498 < 0.01 µM | SK-MEL-28 0.462 µM | IGROV-1 < 0.01 µM | NCI-H460 < 0.01 µM | MCF7 < 0.0107 µM | NCI-H23 < 0.01 µM | KM-20L2 < 0.01 µM | SN12C < 0.01 µM | SK-MEL-5 < 0.01 µM | A549 < 0.01 µM | NCI-H522 < 0.01 µM | OVCAR-3 < 0.01 µM | UACC-257 0.249 µM | 786-0 < 0.01 µM | PC-3 < 0.01 µM | SNB-75 < 0.0442 µM | MOLT-4 < 0.01 µM

COc1cc(C[C@H]2c3cc(OC)c(OC)cc3CCN2C)c(Oc2cc3c(cc2OC)-c2c(OC)c(OC)cc4c2[C@H](C3)N(C)CC4)cc1OC [THALICARPINE]
inactive: HT-29 5.66 µM | NCI-H226 6.58 µM | A498 7.06 µM | SK-MEL-28 4.02 µM | IGROV-1 10.8 µM | NCI-H460 9.16 µM | MCF7 12.2 µM | NCI-H23 12.4 µM | KM-20L2 4.53 µM | SN12C 12.4 µM | SK-MEL-5 3.28 µM | A549 11.9 µM | TK-10 3.61 µM | NCI-H522 6.89 µM | OVCAR-3 10.5 µM | UACC-257 5.13 µM | 786-0 3.52 µM | PC-3 4.93 µM | SNB-75 7.03 µM | MOLT-4 6.25 µM

CN1C(=O)C(=O)N2c3ccc(Cl)cc3C3(c4ccccc4)N=CC12O3 (centres undefined)
inactive: HT-29 4.55 µM | NCI-H226 10.1 µM | A498 10.8 µM | SK-MEL-28 3.44 µM | IGROV-1 7.28 µM | NCI-H460 6.03 µM | NCI-H23 4.13 µM | KM-20L2 8.83 µM | SN12C 3.53 µM | SK-MEL-5 5.52 µM | A549 10.8 µM | TK-10 5.45 µM | NCI-H522 2.4 µM | OVCAR-3 4.38 µM | UACC-257 5.79 µM | 786-0 6.95 µM | SNB-75 3.6 µM | MOLT-4 3.07 µM

O=c1c(O)c(-c2ccccc2)n(O)c2ccc(Cl)cc12
inactive: HT-29 36.8 µM | NCI-H226 19.1 µM | A498 29.2 µM | SK-MEL-28 44 µM | IGROV-1 29.6 µM | NCI-H460 23.6 µM | NCI-H23 34.7 µM | KM-20L2 28.1 µM | SN12C 20.8 µM | SK-MEL-5 17.5 µM | A549 29.6 µM | TK-10 31.3 µM | NCI-H522 21.4 µM | OVCAR-3 32.3 µM | UACC-257 25.1 µM | 786-0 28.7 µM | SNB-75 29 µM | MOLT-4 32.7 µM

Cc1nnc(N/N=C(/C(=O)C(C#N)c2ccccc2)C(C#N)c2ccccc2)n1N (centres undefined)
active: NCI-H460 1.01 µM | MOLT-4 0.845 µM
inactive: HT-29 6.4 µM | NCI-H226 28.8 µM | A498 7.98 µM | SK-MEL-28 20 µM | IGROV-1 > 58.9 µM | NCI-H23 12.9 µM | KM-20L2 49.3 µM | SN12C 3.13 µM | SK-MEL-5 18.3 µM | A549 20.2 µM | TK-10 > 60.3 µM | NCI-H522 17.9 µM | OVCAR-3 20 µM | UACC-257 5.26 µM | 786-0 11.8 µM | SNB-75 16.4 µM
